# A melting point compilation (Tetko et al.; mined from patent text by program, amines drawn as free bases though some values may be those of a salt)
row,Structure (SMILES),melting point
1,O=C(O)c1nc(SC2CCCCC2)ccc1SC1CCCCC1,100 to 101 °C
2,N=C(NNC(=O)c1ccccc1)C(Cl)(Cl)Cl,170 to 172 °C
3,COc1ccc(C(C)(C)C)c(O)c1C(=O)Nc1ccc(S(=O)(=O)C(F)(F)F)cc1Cl,198 to 199 °C
4,COc1c(OC)c(OC(C)=O)c2ccc(Cl)cc2c1O,155 to 156 °C
5,COc1ncnc(OC)c1CON=C(C)c1cc(C)cc(C)n1,125 to 126 °C
6,Nc1nc2c(c3[nH]cnc13)CCCC2,> 300 °C
7,CCOC(=O)C1CCNC1=O (centres undefined),74.5 to 75.5 °C
8,Cc1c(C(F)(F)C(F)(F)F)ncn1-c1ncc(C(F)(F)F)cc1Cl,71 °C
9,NC(Cc1c[nH]c2c(F)cccc12)C(=O)O (centres undefined),256 to 261 °C
10,O=Cc1ccc(-c2cccc(-c3cn([C@H]4CN5CCC4CC5)nn3)c2)s1,150 °C
11,CCc1cccc2c(C(CO)NC=O)c[nH]c12 (centres undefined),195 to 197 °C
12,CC(=O)Nc1ccnn1-c1c(F)c(F)c(C(F)(F)F)c(F)c1F,102 to 104 °C
13,C#CCC(C)(C(=O)O)C(=O)O,135 °C
14,Cc1ccc(Br)cc1NC(=O)NCCCNCCCCl,145 to 148 °C
15,COc1ccc(-c2ocnc2-c2cc(OC)c(F)c(OC)c2)cc1N,140 to 142 °C
16,CN(NC(=O)c1ccc(C#N)cc1)C(=O)OC(C)(C)C,179 to 181 °C
17,CC1CC(=O)C=C2CCC3C4CCC(=O)C4(C)CCC3C21C (centres undefined),154 °C
18,CNC(=S)N1CCc2ncn(C)c2C1,235 °C
19,O=C1OC(=O)c2cc3cc(Cl)ccc3cc21,220 °C
20,Cc1nc2ccc(OC(F)(F)F)cc2[nH]1,135 to 137 °C
21,CCN(CC)C(=O)CCC(=O)c1cccc(C)c1N,104 °C

row,Structure (SMILES),melting point
1,COC(=O)C1=NNC(C)=C(C(=O)OC)C1c1ccc(OC)cc1 (centres undefined),154 °C
2,CCCCCCCCCCCCOP(=O)(CC(=O)Nc1c(C(C)C)cccc1C(C)C)c1ccccc1 (centres undefined),66 to 68 °C
3,Cc1cc(C=O)cc(C)c1N,75 to 76 °C
4,CC(C)(C)OC(=O)CCNC(=O)c1ccc2c(Cl)cnc(Cl)c2c1,131 to 133 °C
5,Nc1nc(F)c(C(F)(F)F)cc1Cl,101 to 103 °C
6,COc1nc2cc(Cl)c(Cl)c(CSCc3ccccc3)c2nc1OC,121 to 122 °C
7,CN(C)Cc1c[nH]c2c(F)cccc12,133 to 137 °C
8,"Oc1ccc2c(c1)C13CCCCC1N(C2)N(CC1CC1)CC3 (single isomer, unassigned; (+))",151 to 153 °C
9,C=CCC(CC=C)(C(=O)NO)S(=O)(=O)c1ccc(OC)cc1,114 to 116 °C
10,CCC(CSC(=S)N(C)C)[N+](=O)[O-] (centres undefined),23 °C
11,COC(=O)[C@@](C)(CCC1=C(C)C(=O)C(C)=C(C)C1=O)OS(C)(=O)=O,112 to 114 °C
12,CCC1(c2cccc(O)c2)CNCC(C)O1 (centres undefined),75 to 105 °C
13,COc1cc(OC)nc(Oc2cccc3c2C(=O)SC3C)n1 (centres undefined),157 to 159 °C
14,CCc1nc2c(N)nc(C)c(C)c2n1CCCC(N)=O,228 to 230 °C
15,Cn1c(=NN)sc2ccccc21,134 °C
16,CCC(CC)NC(=O)C[C@@H](C(=O)NC[C@@H](O)[C@H](Cc1ccccc1)NC(=O)[C@@H](NC(=O)c1ccc2ccccc2n1)[C@@H](C)O)C(C)(C)C,110 to 125 °C
17,CCOCn1c(S(=O)(=O)C(F)(F)C(F)Cl)c(C#N)c2ccccc21 (centres undefined),97 to 100 °C
18,O=C(NCCCCN1CCCC1)Nc1snc(OCc2c(F)cc(Br)cc2F)c1C(=O)O,208 °C
19,CC(=O)OC1Oc2ccc(Br)cc2C1(C)C (centres undefined),73 to 80 °C
20,O=C(O)C1NCCc2c1[nH]c1ccc(F)cc21 (centres undefined),237 to 238 °C
21,CCOC(=O)C1=C[C@H](O)[C@H](NC(C)=O)[C@@H](N=[N+]=[N-])C1,51 to 53 °C

# Second part, the compound after the results:
row,melting point,Structure (SMILES)
1,194 to 195 °C,CCCc1c(OCc2cccc(-c3nnn[nH]3)c2)ccc(C(C)=O)c1O
2,201 °C,O=[N+]([O-])C=C1NCCN1c1ccc(Cl)nc1
3,151 to 152 °C,CC(C)n1c(/C=C/COc2ccc(C(=O)C(=O)O)cc2)c(-c2ccc(F)cc2)c2ccccc21
4,118 to 120 °C,CCC(C)c1ccc(OC(C)=O)c(C2(OC(C)=O)C(=O)c3ccccc3C2=O)c1 (centres undefined)
5,222 °C,Cn1nc(Sc2ccc(C(=O)O)c(Cl)c2)n(C)c1=O
6,111 to 112 °C,CCCCC(=O)N(Cc1ccc2c(c1)c1ccccc1n2CCc1nnn[nH]1)C(C(=O)O)C(C)C (centres undefined)
7,150 to 151 °C,CN1CCN(c2nc3sc4c(NCCN5CCOCC5)ncnc4c3c3c2CCC(C)(C)C3)CC1
8,120 °C,CCC(C)N(C)C(=O)c1cc(-c2ccc(C)c(C)c2)c2sccc2c1 (centres undefined)
9,140 °C,CCNc1ccc(N2CCOC2=O)cc1[N+](=O)[O-]
10,170 °C,Cc1cc2nc(Cl)c3cnccc3n2n1
11,155 °C,O=C(C(Cl)Cl)N1CCN(c2ccc([N+](=O)[O-])cc2)CC1
12,291 to 296 °C,CNc1ncc2c(-c3cccc(Cl)c3)cc(-c3ccc(C(=O)O)cc3)c(O)c2n1
13,155 to 159 °C,O=C(CC1CCCCC1)Nc1c(Cl)ccc2nc(NC[C@@H](O)CO)ccc12
14,128 to 130 °C,Cc1ccccc1C(Oc1cc(OCc2ccccc2)ccc1C#N)C(=O)O (racemic)
15,154 to 155 °C,CCCCc1c(C(=O)O)ccc2c(OC)cccc12
16,170 °C,COc1cc(-c2ccc(=O)[nH]n2)ccc1OC(F)F
17,> 280 °C,Cc1nc(N)c2nc(-c3ccccc3)cc-2[nH]1
18,136 to 137 °C,O=C(O)Cc1cc(Br)c(-c2ccc(Cl)cc2)s1
19,> 200 °C,c1ccc(CN2CC3(COc4cc5c(cc43)CCO5)c3c(-c4cncnc4)cccc32)nc1 (centres undefined)
20,80 °C,COC(=O)C1Cc2c(OC)cccc2N1S(=O)(=O)c1ccc(-c2ccc(F)cc2Cl)cc1 (centres undefined)
21,138 °C,OC[C@H](O)CNc1ccc2cc(OCC3CC3)ccc2c1

row,melting point,Structure (SMILES)
1,90 to 92 °C,CCCCOC(=O)CNC(=O)c1nc2ccc(OC)cc2cc1OCc1ccccc1
2,172 to 174 °C,CNc1cc(NS(=O)(=O)c2ccccc2)ccc1[N+](=O)[O-]
3,281 to 285 °C,CCOC(=O)c1ccc(N2CCN(c3c(C)nc(N)nc3N)CC2)cc1
4,284 °C,CCCC1=C(C#N)C(c2ccccc2Cl)c2c(n[nH]c2-c2ccc(OC)cc2)N1 (centres undefined)
5,177 °C,O=[N+]([O-])c1c(Cl)cc(-c2n[nH]cc2Cl)cc1Cl
6,168 to 170 °C,CCc1nc(OC)c(NC(=O)N2CCN(c3cccc(O)c3)CC2)cc1C
7,250 to 255 °C,CCNCC1(C)CN(c2c(F)cc3c(=O)c(C(=O)O)cn(C4CC4)c3c2F)C1
8,70 to 72 °C,O=C(NCCSCc1cccc(F)c1)c1c(Cl)cccc1Cl
9,124 to 125 °C,CCCCC(Cc1ccc(OCCNC(=O)c2ccc(Oc3ccccc3)nc2)cc1)C(=O)O (centres undefined)
10,160 to 163 °C,COc1ccc(N2C(=O)[C@H](O)[C@@H]2CC(C)C)cc1
11,166 °C,COc1cc(Oc2ccc(C(=O)N(C3CCCCC3)C3CCCC3)cc2)cc(OC)c1OC
12,213 to 216 °C,O=[N+]([O-])c1ccc(N2CCN(c3ccncc3)CC2)cc1
13,152 °C,O=[N+]([O-])c1cc(C(F)(F)F)ccc1NCCN1CCN(C(c2ccccc2)c2ccccc2)CC1
14,107 to 108 °C,CC(=O)c1ccc(OCc2ccccc2)cc1O
15,199 °C,O=c1[nH]cnc2c1CCN(Cc1ccccc1)C2
16,295 °C,CC(C)(C)c1ccccc1N1CCN(C(=O)c2nc[nH]n2)CC1
17,96 to 98 °C,CNc1cc(Br)cc(Sc2ccc([N+](=O)[O-])cc2)c1
18,99 to 101 °C,O=Cc1ccccc1OCC(=O)NCCO[N+](=O)[O-]
19,93 °C,CCOC(=O)c1nnc(-c2ccc(OCC)cc2)o1
20,212 °C,COC1(c2cccc3[nH]ccc23)CCCNC1 (centres undefined)
21,223 °C,CC(=O)Nc1ccc(C2=NNC(=O)CC2)cc1[N+](=O)[O-]

row,melting point,Structure (SMILES)
1,152 to 154 °C,O=c1cc2c(nn1Cc1ccc(Cl)cc1)-c1cc(Br)sc1SCC2
2,> 300 °C,O=C(O)c1ccc(-c2nc(-c3ccccn3)cs2)cc1
3,151 to 152 °C,CCOC(=O)c1cn(C)nc1NCc1ccc(-c2ccccc2C#N)cc1
4,123 to 125 °C,COc1ccccc1CC(=O)Nc1cc(Cl)c(Cl)cc1[N+](=O)[O-]
5,204 to 205 °C,Nc1cc(N2C(=O)CCc3ccccc32)ccn1
6,137 to 138 °C,CCC(Oc1ccccc1)c1nnc(N2C(=O)N(C)CC2O)s1 (centres undefined)
7,79 °C,Cc1ccc(S(=O)(=O)OCC2COc3ccccc3O2)cc1 (centres undefined)
8,193 to 197 °C,CC(C)c1cccc(C(C)C)c1NC(=O)[C@H](CCc1ccccc1)NC(=O)OC(C)(C)C
9,109 to 110 °C,COCC1CN(c2ccc(C3CCC(O)CC3)cc2)C(=O)O1 (racemic)
10,115 to 118 °C,O=C(COc1ccc2ccccc2c1)NC(Cc1ccccc1)C(=O)CSCc1ccco1 (centres undefined)
11,> 210 °C,O=C(O)Cn1c(=O)c(=O)[nH]c2cc([N+](=O)[O-])c(-n3ccc(CN4CCC(c5ccccc5)CC4)c3)cc21
12,169 to 170 °C,COC(=O)c1sc2cc([N+](=O)[O-])ccc2c1N
13,200 °C,Cn1cncc1C(O)(c1ccc(F)cc1)c1ccc2c(c1)c(-c1cccc(Cl)c1)nc1nnnn12 (centres undefined)
14,270 to 276 °C,CC1(N)CN(c2cc3c(cc2F)c(=O)c(C(=O)O)cn3-c2ccc(F)cc2)C1
15,141 to 143 °C,CCNC(=O)N1CCN(C2CCCc3ccc(OC)cc32)CC1 (centres undefined)
16,170 to 173 °C,CN(C)C1=Nc2ccccc2C(O)(c2ccccc2)C1(C)C (centres undefined)
17,133 °C,C#CCN(c1ccc(C(=O)O)cc1)C1CCc2cc3nc(COC(=O)C(C)(C)C)[nH]c(=O)c3cc21 (racemic)
18,211 to 213 °C,NCc1ccc(CNc2ncc3ncnc(Nc4ccc(F)c(Cl)c4)c3n2)cc1
19,192 to 194 °C,COc1ccc(S(=O)(=O)NC(C)c2cc(F)ccc2-c2ccc(F)cc2F)c(OC)c1 (centres undefined)
20,150 to 151 °C,N#Cc1cc(C(F)(F)F)nn1-c1ccc(NC(=O)c2cccnc2F)cc1
